Assay results taken from patent US20190209472A1, “FORMULATIONS FOR DERMAL DELIVERY OF POLYMER CONJUGATES OF INDOLOCARBAZOLE COMPOUNDS WITH REDUCED EXPOSURE” (Sienna Biopharmaceuticals, Inc., priority 2017, published 2019).

How the values were obtained:
[1] = test system: pruritus associated with psoriasis vulgaris; test: Phase 1b maximal use study: exploratory efficacy (I-NRS, PASI, IGA, BSA); type: in vivo, human
Source text: Efficacy Evaluations: Change from baseline at each study visit in the I-NRS; Change from baseline at each study visit in the Psoriasis Area and Severity Index ([…]) score; PASI-75: response defined as a reduction of ≥75% from baseline at each study visit on the PASI; PASI-50: response defined as a reduction of ≥50% from baseline at each study visit on the PASI; Change from baseline at each study visit in the Investigator Global Assessment (IGA); Proportion of subjects with a ≥1-grade decrease on the IGA at each study visit; Proportion of subjects with a ≥2-grade decrease on the IGA at each study visit; and Change from baseline at each study visit in BSA affected by psoriasis.
Subject Assessments—Itch Numeric Rating Scale: The I-NRS is a 1 item daily PRO measure that the subjects use to assess pruritus severity at its worst in the 24 hours prior to the assessment based on an 11-point numeric rating scale ranging from 0 (“no itching at all”) to 10 (“worst possible itching”). The I-NRS assesses overall pruritus severity. An I-NRS score of at least 4 is required to be eligible for the study. The investigator will evaluate subject eligibility based on itch associated with PV plaques at Screening. The Baseline measurement will be collected on Study Day 1 prior to study drug administration. The change from Baseline at each study visit will be determined.
Investigator Assessments: Investigator assessments include: BSA affected by psoriasis; IGA of overall psoriasis (Apremilast (Otezla) CDER Medical Review of Celgene NDA, 2014. Accessdata.fda.gov. Accessed Aug. 8, 2017.); and PASI (Fredriksson T, Pettersson U. Severe psoriasis—oral therapy with a new retinoid. Dermatologica. 1978; 157(4):238-244.).
Body Surface Area Affected by Psoriasis: Assessment of the percentage of a subject's BSA affected by psoriasis will be made by best estimates of the investigator, using the “handprint” method where 1%=1 subject handprint. At screening and baseline this should be ≥20% of BSA. The change from baseline BSA affected by psoriasis will be determined.
Investigator Global Assessment: The IGA is a site-based clinician-reported outcome measure that assesses the overall severity of psoriasis by evaluating induration (plaque elevation), erythema, and desquamation (scaling) on a 5-point scale from 0 to 4, where 0=Clear to 4=Severe. The investigator will make this assessment to calculate the overall improvement in psoriasis (the proportion of subjects achieving a rating of “Clear” or “Almost Clear” and at least a 2-point decrease [improvement] on the 5-point scale) using the IGA. The proportion of subjects achieving at least a 1-grade and 2-grade decrease from baseline will also be calculated.
Psoriasis Area and Severity Index: The PASI score is a site-based ClinRO by which a weighted sum of erythema, scaling, and induration/thickness scores over different regions of the body is determined, using the algorithm given in Fredriksson T, Pettersson U., Dermatologica. 1978; 157(4):238-244.). Each symptom will be scored on a 5-point scale from 0 to 4, where 0=Clear and 4=Very marked. The change from Baseline in the PASI score, and the percentages of subjects who have achieved a ≥75% or ≥50% reduction from baseline (PASI-75 and PASI-50, respectively), will be determined.

TrkA kinase = TrkA kinase (Homo sapiens, UniProt P04629)
Sequence of TrkA kinase (P04629 33-796): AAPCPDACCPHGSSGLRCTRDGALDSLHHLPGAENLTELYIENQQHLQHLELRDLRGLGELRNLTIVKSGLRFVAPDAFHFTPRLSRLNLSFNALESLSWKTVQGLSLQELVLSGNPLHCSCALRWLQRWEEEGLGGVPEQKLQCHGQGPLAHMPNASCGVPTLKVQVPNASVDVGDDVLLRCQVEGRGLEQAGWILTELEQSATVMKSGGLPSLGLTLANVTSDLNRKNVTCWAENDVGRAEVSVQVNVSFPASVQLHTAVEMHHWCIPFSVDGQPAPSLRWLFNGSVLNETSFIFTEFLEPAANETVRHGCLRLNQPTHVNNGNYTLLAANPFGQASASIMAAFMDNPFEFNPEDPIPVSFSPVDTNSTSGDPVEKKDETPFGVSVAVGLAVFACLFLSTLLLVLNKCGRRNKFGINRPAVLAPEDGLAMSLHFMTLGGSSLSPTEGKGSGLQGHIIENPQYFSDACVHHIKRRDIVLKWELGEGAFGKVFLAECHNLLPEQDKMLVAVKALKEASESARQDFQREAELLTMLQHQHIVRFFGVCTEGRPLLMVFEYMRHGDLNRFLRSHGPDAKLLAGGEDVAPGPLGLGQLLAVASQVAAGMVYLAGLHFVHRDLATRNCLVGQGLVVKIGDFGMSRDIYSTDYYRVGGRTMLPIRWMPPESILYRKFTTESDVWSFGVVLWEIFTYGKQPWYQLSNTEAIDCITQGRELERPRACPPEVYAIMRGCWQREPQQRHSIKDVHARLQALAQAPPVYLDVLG

Q: What does the source list for “(9S, 10R, 12R)-10-(3′-mPEG2000-1′,3′-oxazolidine-2′,4′-dione)-2,3,9,10,11,12-hexahydro-9-methyl-1-oxo-9,12-epoxy-1H-diindolo[1,2,3-fg:3′,2′,1′-k,l]pyrrolo[3,4-i][1,6] benzodiazocine] [CT327]”?
A: IGA 1-grade, % of subjects ([1]; Week 4): (30%); IGA 2-grade, % of subjects ([1]; Week 4): (13.3%); NRS 3-grade, % of subjects ([1]; Week 4): (60.0%); NRS 50, % of subjects ([1]; Week 4): (46.7%); NRS (% change from baseline), mean ([1]; Week 4): −41.35%; PASI 50, % of subjects ([1]; Week 4): (33.3%); PASI 75, % of subjects ([1]; Week 4): (10.0%); PASI (change from baseline), mean ([1]; Week 4): −6.44; NRS (change from baseline), mean ([1]; Week 4, 0.5% SNA-120 (w/w) ointment twice daily, open label): −3.4; Subjects with at least a 4-grade improvement in the Itch Numeric Rating Scale (I-NRS) ([1]; post hoc analysis): approximately 57% of subjects; Inhibition of human keratinocyte proliferation in vitro (human keratinocyte): clear inhibitory activity; Inhibition of TrkA kinase (TrkA kinase): inhibitor of TrkA kinase at nanomolar levels
